In ChEMBL document CHEMBL5046244, “Targeted Covalent Inhibition of Small CTD Phosphatase 1 to Promote the Degradation of the REST Transcription Factor in Human Cells” (J Med Chem, 2022):
Activity calls are given as the source filed them. No cut-off for these calls is given here.

What was measured:
[1] = system: Schizosaccharomyces pombe; experiment: Time dependent inhibition of Schizosaccharomyces pombe wild type FCP1 (148 to 641 residues) using pNPP as substrate measured upto 18 hrs by absorbance based assay; details: time hrs <=18
[2] = biological target: T1, Tyrosine-protein phosphatase non-receptor type 11 (Homo sapiens) (UniProt Q06124); experiment: Inhibition of SHP2 (unknown origin) at 25 to 30 uM; details: dose 25-30 µM
T1 sequence (whole entry): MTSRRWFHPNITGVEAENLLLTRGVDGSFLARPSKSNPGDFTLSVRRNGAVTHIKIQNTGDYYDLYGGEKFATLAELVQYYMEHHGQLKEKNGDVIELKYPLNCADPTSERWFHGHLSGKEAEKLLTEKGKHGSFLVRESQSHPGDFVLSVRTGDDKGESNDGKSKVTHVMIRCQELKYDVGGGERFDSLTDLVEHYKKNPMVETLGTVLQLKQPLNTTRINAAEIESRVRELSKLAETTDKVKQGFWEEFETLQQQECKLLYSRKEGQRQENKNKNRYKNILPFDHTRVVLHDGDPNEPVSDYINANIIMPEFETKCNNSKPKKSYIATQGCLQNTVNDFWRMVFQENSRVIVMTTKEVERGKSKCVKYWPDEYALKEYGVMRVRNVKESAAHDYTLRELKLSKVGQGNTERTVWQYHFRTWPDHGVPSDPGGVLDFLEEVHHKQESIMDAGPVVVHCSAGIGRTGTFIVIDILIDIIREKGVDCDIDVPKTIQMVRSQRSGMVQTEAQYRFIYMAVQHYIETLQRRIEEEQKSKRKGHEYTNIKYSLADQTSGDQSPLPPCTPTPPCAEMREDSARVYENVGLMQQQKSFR

[3] = biological target: T2, Tyrosine-protein phosphatase non-receptor type 1 (Homo sapiens) (UniProt P18031); experiment: Inhibition of human PTP1B (1 to 321 residues) expressed in Escherichia coli BL21 (DE3) using pNPP as substrate at up to 200 uM preincubated for 4 hrs followed by substrate addition by absorption based analysis; details: dose microM <=200, time 4.0 hrs
T2 sequence (whole entry): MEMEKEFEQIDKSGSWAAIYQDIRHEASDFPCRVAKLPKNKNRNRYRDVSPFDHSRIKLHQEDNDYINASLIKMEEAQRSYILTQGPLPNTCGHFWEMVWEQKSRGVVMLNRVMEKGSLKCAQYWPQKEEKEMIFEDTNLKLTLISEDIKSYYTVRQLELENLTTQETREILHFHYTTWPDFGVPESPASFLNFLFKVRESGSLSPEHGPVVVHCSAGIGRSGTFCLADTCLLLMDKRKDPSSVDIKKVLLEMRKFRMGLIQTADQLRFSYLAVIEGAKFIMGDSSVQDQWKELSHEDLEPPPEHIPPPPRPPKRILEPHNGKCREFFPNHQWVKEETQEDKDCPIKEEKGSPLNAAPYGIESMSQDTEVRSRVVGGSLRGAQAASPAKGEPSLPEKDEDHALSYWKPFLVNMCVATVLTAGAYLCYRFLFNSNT

[4] = Downregulation of REST protein expression in HEK293 cells at 10 uM incubated for 3 days with media replenishment for every 24 hrs by immunoblot analysis relative to control; assay type: functional, Homo sapiens; details: time 3 day
[5] = system: HEK293; experiment: Downregulation of REST protein expression in HEK293 cells at 10 uM incubated for 48 to 72 hrs by immunoblot analysis; assay type: functional, cell-based; details: Homo sapiens, time lower […], time upper 72.0 hrs
[6] = species on record: Homo sapiens; experiment: Covalent inhibition of human SCP1 C92S mutant using pNPP as substrate preincubated for 0.5 to 8 hrs followed by substrate addition by absorbance based analysis; details: time 0.5-8 hrs
[7] = Downregulation of REST protein expression in HEK293 cells at 10 uM incubated for 12 hrs by immunoblot analysis relative to control; assay type: functional, Homo sapiens
[8] = system: HEK293; experiment: Recovery of REST protein expression in HEK293 cells at 10 uM incubated for 2 days with media replenishment for every 24 hrs followed by compound washout and measured after 12 hrs by immunoblot analysis relative to control; assay type: functional, Homo sapiens; details: time 2 day
[9] = Upregulation of CELSR3 mRNA expression in HEK293 cells assessed as fold increase by qRT-PCR analysis; assay type: functional, Homo sapiens
[10] = biological target: T3, Tyrosine-protein phosphatase non-receptor type 22 (Homo sapiens) (UniProt Q9Y2R2); experiment: Inhibition of LYP (unknown origin) at 25 to 30 uM; details: dose 25-30 µM
T3 sequence (whole entry): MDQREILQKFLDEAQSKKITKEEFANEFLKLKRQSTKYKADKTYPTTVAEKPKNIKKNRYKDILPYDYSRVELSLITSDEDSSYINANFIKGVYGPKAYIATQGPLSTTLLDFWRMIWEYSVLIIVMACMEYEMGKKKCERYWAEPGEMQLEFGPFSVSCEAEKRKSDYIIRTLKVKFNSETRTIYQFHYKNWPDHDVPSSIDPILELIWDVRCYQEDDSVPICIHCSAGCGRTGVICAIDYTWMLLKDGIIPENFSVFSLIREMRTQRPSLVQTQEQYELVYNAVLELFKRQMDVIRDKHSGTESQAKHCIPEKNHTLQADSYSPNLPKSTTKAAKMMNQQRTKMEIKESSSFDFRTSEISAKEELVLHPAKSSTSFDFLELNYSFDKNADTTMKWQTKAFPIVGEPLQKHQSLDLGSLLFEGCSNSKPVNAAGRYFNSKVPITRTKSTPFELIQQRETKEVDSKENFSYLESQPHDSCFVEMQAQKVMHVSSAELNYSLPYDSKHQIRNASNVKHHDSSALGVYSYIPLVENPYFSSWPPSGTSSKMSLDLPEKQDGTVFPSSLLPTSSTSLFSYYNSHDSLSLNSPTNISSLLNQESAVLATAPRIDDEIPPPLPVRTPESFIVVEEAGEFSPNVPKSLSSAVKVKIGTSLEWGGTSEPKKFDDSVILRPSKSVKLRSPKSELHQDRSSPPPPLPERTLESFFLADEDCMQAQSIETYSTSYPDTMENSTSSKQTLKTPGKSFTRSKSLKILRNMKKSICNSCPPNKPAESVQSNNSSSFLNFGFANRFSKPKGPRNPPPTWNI

[11] = Downregulation of REST protein expression in HEK293 cells at 10 uM incubated for 6 hrs by immunoblot analysis relative to control; assay type: functional, Homo sapiens
[12] = system: HEK293; experiment: Recovery of REST protein expression in HEK293 cells at 10 uM incubated for 2 days with media replenishment for every 24 hrs followed by compound washout and measured after 3 days by immunoblot analysis relative to control; assay type: functional, Homo sapiens; details: time 2 day
[13] = Downregulation of REST protein expression in HEK293 cells transfected with wild type SCP1 at 10 uM incubated for 48 hrs with media replenishment for every 24 hrs by immunoblot analysis relative to control; assay type: functional, Homo sapiens
[14] = biological target: Dual specificity protein phosphatase 3 (Homo sapiens) (UniProt P51452); experiment: Inhibition of VHR (unknown origin) at 25 to 30 uM; details: dose 25-30 µM
Chain of Dual specificity protein phosphatase 3 (Homo sapiens) (P51452 whole entry, looked up): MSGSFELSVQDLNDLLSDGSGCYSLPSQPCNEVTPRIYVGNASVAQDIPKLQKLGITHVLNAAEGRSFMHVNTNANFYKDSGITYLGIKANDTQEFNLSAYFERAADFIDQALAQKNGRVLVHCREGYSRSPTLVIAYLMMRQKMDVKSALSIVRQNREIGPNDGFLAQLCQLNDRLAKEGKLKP

[15] = Downregulation of REST protein expression in HEK293 cells at 3 uM incubated for 3 days with media replenishment for every 24 hrs by immunoblot analysis relative to control; assay type: functional, Homo sapiens; details: time 3 day
[16] = system: Schizosaccharomyces pombe; experiment: Inhibition of Schizosaccharomyces pombe wild type FCP1 (148 to 641 residues) assessed as reduction in enzymatic activity using pNPP as substrate at 100 uM measured up to 18 hrs by absorbance based assay relative to control; details: time hrs <=18
[17] = species on record: Homo sapiens; experiment: Covalent binding affinity to human SCP1 C181A mutant assessed as covalent adduct formation incubated for overnight by MALDI-TOF analysis
[18] = Upregulation of DYRK1a mRNA expression in HEK293 cells assessed as fold increase by qRT-PCR analysis; assay type: functional, Homo sapiens
[19] = species on record: Homo sapiens; experiment: Covalent binding affinity to human SCP1 C92 mutant assessed as covalent adduct formation incubated for overnight by MALDI-TOF analysis
[20] = species on record: Homo sapiens; experiment: Covalent inhibition of human SCP1 C181A mutant using pNPP as substrate preincubated for 0.5 to 8 hrs followed by substrate addition by absorbance based analysis; details: time 0.5-8 hrs
[21] = biological target: T4, Tyrosine-protein phosphatase non-receptor type 2 (Homo sapiens) (UniProt P17706); experiment: Inhibition of TCPTP (unknown origin) at 25 to 30 uM; details: dose 25-30 µM
T4 sequence (whole entry): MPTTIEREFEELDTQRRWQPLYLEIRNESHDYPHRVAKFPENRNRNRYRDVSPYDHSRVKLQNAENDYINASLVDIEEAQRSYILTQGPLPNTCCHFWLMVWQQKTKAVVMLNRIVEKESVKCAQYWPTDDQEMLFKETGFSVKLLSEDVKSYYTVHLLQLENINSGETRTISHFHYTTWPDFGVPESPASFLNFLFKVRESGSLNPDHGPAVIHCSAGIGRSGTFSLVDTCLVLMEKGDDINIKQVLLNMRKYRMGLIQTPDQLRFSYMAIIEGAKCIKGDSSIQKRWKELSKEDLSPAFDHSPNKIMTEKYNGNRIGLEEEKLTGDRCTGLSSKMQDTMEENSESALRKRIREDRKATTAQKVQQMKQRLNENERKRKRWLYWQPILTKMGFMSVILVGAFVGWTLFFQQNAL

[22] = species on record: Homo sapiens; experiment: Covalent inhibition of human SCP1 C148A mutant using pNPP as substrate preincubated for 0.5 to 8 hrs followed by substrate addition by absorbance based analysis; details: time 0.5-8 hrs
[23] = Downregulation of REST protein expression in HEK293 cells at 5 uM incubated for 3 days with media replenishment for every 24 hrs by immunoblot analysis relative to control; assay type: functional, Homo sapiens; details: time 3 day
[24] = Upregulation of ELAVL1 mRNA expression in HEK293 cells assessed as fold increase by qRT-PCR analysis; assay type: functional, Homo sapiens
[25] = Upregulation of SCN2 mRNA expression in HEK293 cells assessed as fold increase by qRT-PCR analysis; assay type: functional, Homo sapiens
[26] = Upregulation of USP37 mRNA expression in HEK293 cells assessed as fold increase by qRT-PCR analysis; assay type: functional, Homo sapiens
[27] = Downregulation of REST protein expression in HEK293 cells incubated for 3 days with media replenishment for every 24 hrs by immunoblot analysis; assay type: functional, cell-based; details: Homo sapiens
[28] = biological target: T5, Receptor-type tyrosine-protein phosphatase C (Homo sapiens) (UniProt P08575); experiment: Inhibition of CD45 (unknown origin) at 25 to 30 uM; details: dose 25-30 µM
T5 sequence (whole entry): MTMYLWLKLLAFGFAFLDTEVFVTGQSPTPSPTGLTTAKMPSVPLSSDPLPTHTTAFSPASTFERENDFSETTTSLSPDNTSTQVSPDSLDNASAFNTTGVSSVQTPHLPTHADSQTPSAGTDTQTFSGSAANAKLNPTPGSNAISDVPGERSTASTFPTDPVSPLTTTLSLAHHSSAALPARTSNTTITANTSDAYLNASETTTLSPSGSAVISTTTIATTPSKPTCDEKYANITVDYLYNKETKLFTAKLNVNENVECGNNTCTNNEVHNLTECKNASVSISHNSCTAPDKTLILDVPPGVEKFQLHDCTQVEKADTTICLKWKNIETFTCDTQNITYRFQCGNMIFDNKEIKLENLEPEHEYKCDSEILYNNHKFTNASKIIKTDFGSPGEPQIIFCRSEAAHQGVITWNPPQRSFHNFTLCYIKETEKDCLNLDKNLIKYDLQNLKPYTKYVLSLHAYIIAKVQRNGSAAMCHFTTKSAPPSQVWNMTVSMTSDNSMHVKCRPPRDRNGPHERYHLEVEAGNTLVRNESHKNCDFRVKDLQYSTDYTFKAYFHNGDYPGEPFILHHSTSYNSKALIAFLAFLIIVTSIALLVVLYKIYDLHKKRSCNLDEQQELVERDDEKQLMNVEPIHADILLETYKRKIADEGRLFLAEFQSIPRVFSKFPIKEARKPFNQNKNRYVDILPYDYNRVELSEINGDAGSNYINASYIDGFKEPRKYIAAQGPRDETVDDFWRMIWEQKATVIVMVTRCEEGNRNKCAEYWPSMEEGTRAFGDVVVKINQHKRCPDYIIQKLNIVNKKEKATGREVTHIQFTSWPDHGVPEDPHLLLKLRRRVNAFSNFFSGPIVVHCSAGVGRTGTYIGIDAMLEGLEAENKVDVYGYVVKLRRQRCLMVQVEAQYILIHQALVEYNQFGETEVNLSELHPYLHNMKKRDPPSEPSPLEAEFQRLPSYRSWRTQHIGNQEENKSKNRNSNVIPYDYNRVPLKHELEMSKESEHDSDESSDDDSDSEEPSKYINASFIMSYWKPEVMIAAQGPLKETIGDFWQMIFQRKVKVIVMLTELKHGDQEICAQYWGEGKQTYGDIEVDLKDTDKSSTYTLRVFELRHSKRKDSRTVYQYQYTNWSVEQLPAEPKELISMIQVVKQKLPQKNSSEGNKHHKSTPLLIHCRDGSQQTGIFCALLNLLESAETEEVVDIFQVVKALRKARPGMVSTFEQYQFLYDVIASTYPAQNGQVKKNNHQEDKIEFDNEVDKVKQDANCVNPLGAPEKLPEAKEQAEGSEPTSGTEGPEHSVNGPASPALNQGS

[29] = species on record: Homo sapiens; experiment: Inhibition of PP1 (unknown origin) using pNPP as substrate incubated for 4 hrs by absorbance based analysis
[30] = system: HEK293; experiment: Recovery of REST protein expression in HEK293 cells at 10 uM incubated for 2 days with media replenishment for every 24 hrs followed by compound washout and measured after 24 to 48 hrs by immunoblot analysis relative to control; assay type: functional, Homo sapiens; details: time 2 day

inhibition [1]: inactive
inhibition [2]: inactive
inhibition [3]: inactive
inhibition [6]: inactive
inhibition [10]: inactive
inhibition [14]: inactive
inhibition [16]: 50%
Activity [17]: inactive
Activity [19]: Active
inhibition [20]: Active
inhibition [21]: inactive
inhibition [22]: Active
EC50 [27]: 1.5 µM
inhibition [28]: inactive
inhibition [29]: inactive
SMILES: O=C(NCCCNS(=O)(=O)c1ccc(OC(F)(F)F)cc1)C1=Cc2ccccc2S1(=O)=O
Activity [4]: 7%
Activity [5]: Active
Activity [7]: 20%
Activity [8]: 24%
fold change (FC) [9]: 2
Activity [11]: 60%
Activity [12]: 77%
Activity [13]: 80%
Activity [15]: 40%
fold change (FC) [18]: 2
Activity [23]: 75%
fold change (FC) [24]: 2
fold change (FC) [25]: 2
fold change (FC) [26]: 2
Activity [30]: 50%
